{"source": "patent US10830683B2", "about": "“Method for measuring coagulation of blood samples using viscoelastic tests (VET)” (CA Casyso GmbH, priority 2012, dated 2020)", "system": "citrated whole blood", "assay": "ROTEM (NATEM) of recalcified citrated whole blood with added bead suspension or supernatant", "assay_type": "cell-based, human", "conditions": "cell-coated beads preincubated with TNFα 10 ng/ml for 12-16 h; compared with unstimulated cells", "protocol": "To seed endothelial cells on microbeads, an approximate cell count of 400 OEC or HUVEC per bead was mixed with Cytodex 3 (collagen-coated) dextran microcarrier beads (GE Healthcare Bio-Sciences AB, Uppsala, Sweden) in 1 ml of EGM-2 medium. Beads and cells were incubated at 37° C. and 5% CO2 for 4 h and shaken gently every 20 min. After transferring the suspension to a 25-cm^2 tissue culture flask (Greiner Bio-One, Linz, Austria), microbeads were optionally incubated with TNFα (Sigma Aldrich, Vienna) at a final concentration of 10 ng/ml for 12-16 h at 37° C. and 5% CO2 in 4 ml of EGM-2 to simulate an inflammatory situation. To assess the influence of collagen, data from bare, collagen-coated Cytodex 3 were compared with uncoated Cytodex 1 (GE Healthcare Bio-Sciences AB, Uppsala, Sweden) beads in an identical setting.\nCoated Beads and overnight-conditioned cell culture supernatant were gently taken up with a 10 ml serological pipette and transferred to a 15 ml Falcon tube. Once beads descended, the supernatant was carefully transferred to 1.5 ml tubes and centrifuged at 1,500×g for 20 minutes. […]\nThe following ROTEM parameters were calculated from the signal and included in the statistical analysis: Clotting time (CT, sec), latency until the clot reaches a firmness of 2 mm; measure for initial thrombin and fibrin formation. […]"}
{"substance": "TNFα", "values": [{"measurement": "Clotting time (CT) after prior activation of cells", "result": "significant further shortening of CT"}]}
